Results taken from patent publication EP0329223A2, “Acetylenic and triyne cyclic carbonates” (Merck & Co., Inc., priority 1988, dated 1989).
Values after ≈ are worked out from the molar mass of the structure shown. Read-outs that look alike come from different tables or passages of the source.

How the values were obtained:
[1] = target: T1, Acetoacetyl-coenzyme A thiolase (Rattus norvegicus, UniProt Q5XI22); assay: Acetoacetyl-coenzyme A thiolase inhibition, coupled spectrophotometric assay (NADH oxidation at 340 nm); type: biochemical, Sprague Dawley rats
T1 construct: prepared from the livers of Sprague Dawley rats treated in the diet for one week with 0.075% lovastatin to induce the enzyme; from tissue; host or cells: liver of lovastatin-treated Sprague Dawley rats
T1 sequence (Q5XI22 whole entry): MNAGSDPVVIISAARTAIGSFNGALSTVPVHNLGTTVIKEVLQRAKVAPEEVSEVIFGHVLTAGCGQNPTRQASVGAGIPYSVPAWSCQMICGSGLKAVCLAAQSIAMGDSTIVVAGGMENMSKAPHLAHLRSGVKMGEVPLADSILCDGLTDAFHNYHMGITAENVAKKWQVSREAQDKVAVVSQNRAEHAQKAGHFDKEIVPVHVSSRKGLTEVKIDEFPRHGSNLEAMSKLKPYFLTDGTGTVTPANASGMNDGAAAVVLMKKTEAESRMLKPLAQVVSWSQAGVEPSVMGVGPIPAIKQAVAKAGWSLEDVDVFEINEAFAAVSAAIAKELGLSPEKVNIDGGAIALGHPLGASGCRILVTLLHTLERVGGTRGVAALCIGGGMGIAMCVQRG
Protocol: Acetoacetyl-coenzyme A thiolase was prepared from the livers of Sprague Dawley rats treated in the diet for one week with 0.075% lovastatin to induce the enzyme. […] The 0.06 M eluate described by Mehrabian et al. contained the acetoacetyl-coenzyme A thiolase. The isolate was concentrated by ammonium sulfate precipitation, dissolved in the buffer used for elution, and stored at -70°C.
Reaction was measured at room temperature for a time period necessary to produce a measurable reaction rate. An IC₅₀, the concentration that inhibits 50% of the acetoacetyl-coenzyme A thiolase activity, was determined for each test compound. […]

Candida albicans MY 1055 = assay: Antifungal assay, minimum inhibitory concentration; type: cell-based; settings: lowest concentration that inhibits visible growth, Yeast Nitrogen Base/0.5% glucose, 37°C for 18 hours, starting inoculum 3-5 x 10⁻⁴ CFU/ml
Protocol: Antifungal activity was determined against Candida albicans MY 1055, a yeast strain maintained by Merck and Co; Rahway, New Jersey. Minimum inhibitory concentrations were determined using a starting inoculum of […]. The medium was Yeast Nitrogen Base/0.5% glucose. Test compounds were dissolved in a minimum amount of 50% aqueous ethanol and diluted to final concentrations with yeast medium. Samples were incubated at 37°C for 18 hours. The minimum inhibitory concentration (MIC), reported in µg/ml, is the lowest concentration of test compound that inhibits visible growth.

[2] = enzyme from rat liver (lovastatin-induced), pH 7.5, room temperature, 2.85 mM acetoacetyl-coenzyme A, read-out: IC₅₀

Compound | IC50 [1, 2] [nM] | MIC (Candida albicans MY 1055) [µg/mL] | IC50 [1] [nM] | MIC (Candida albicans MY 1055; read-out: MIC) [µg/mL]
5-(1(R)-Methoxy-2,4,6-octatriynyl)-2-oxo-4(S),5(S)-1,3 dioxolane-4-heptanoic acid, methyl ester [Ex. 13] | 560 | 5 | – | –
COC(=O)CCCCCC[C@@H]1OC(=O)O[C@H]1C(O)C#CC#CC#C[Si](C)(C)C (single isomer, unassigned) [Ex. 5] | – | – | 62 | 0.078 (≈ 0.193 µM)
COC(=O)CCCCCC[C@@H]1OC(=O)O[C@H]1C(O)C#CC#CC#C[Si](C)(C)C (single isomer, unassigned) [Ex. 6] | – | – | 990 | 0.6 (≈ 1.48 µM)
C#CC#CC#C[C@@H](O)[C@@H]1OC(=O)O[C@H]1CCCCCCC(=O)OC [Ex. 17, 5-(1(R)-Hydroxy-2,4,6-heptatriynyl)-2-oxo-4(S),5(S)-1,3-dioxolane-4-heptanoic acid, methyl ester] | 24 | – | – | –
C#CC#CC#C[C@@H](OC(C)=O)[C@@H]1OC(=O)O[C@H]1CCCCCCC(=O)OC [Ex. 18, 5-(1(R)-(Acetyloxy)-2,4,6-heptatriynyl)-2-oxo-4(S),5(S)-1,3-dioxolane-4-heptanoic acid, methyl ester] | 150 | – | – | –
C#CC#CC#C[C@@H](OC(C)=O)[C@@H]1OC(=O)O[C@H]1CCCCCCC(=O)O [Ex. 19, 5-(1(R)-(Acetyloxy)-2,4,6-heptatriynyl)-2-oxo-4(S),5(S)-1,3-dioxolane-4-heptanoic acid] | 9 | – | – | –
C#CC#CC#C[C@@H](OC)[C@@H]1OC(=O)O[C@H]1CCCCCCC(=O)OC [Ex. 20, 5-(1(R)-Methoxy-2,4,6-heptatriynyl)-2-oxo-4(S),5(S)-1,3-dioxolane-4 heptanoic acid, methyl ester] | 46 | – | – | –
